Assay results as given in patent US4440772A, “Acid addition salts of dextrorotatory ergot alkaloids, a process for the preparation thereof as well as their use as medicines” (priority 1978, dated 1984).

How the values were obtained:
[1] = established for known ergot alkaloids; cited from earlier work
[2] = literature comparison; cited from earlier work
[3] = test system: smooth muscles of blood vessels; test: effect on blood pressure drop in rats with cut spinal cord; type: in vivo, rats (variety Wistar); settings: for long-duration hypertension (effect in words): 4.5 mg/kg of body weight; for vasoconstrictory effect: contraction of smooth muscles of blood vessels
Description: Rats (variety Wistar) in urethane narcosis were cut their spinal cord in the region of the second cervical vertebra and connected to an artificial breathing apparatus (B. Melsungen). By this intervention the central regulation of blood pressure was eliminated. In so treated animals blood pressure dropped for about 50 mm Hg. The experiment was supposed to show whether the examined substances directly affected the smooth muscles of blood vessels.

[4] = test system: heart in situ; test: effect on heart in situ in rats; type: in vivo; settings: slow infusion
Experimental: The effect of ergotaminine, ergosinine and ergocrystinine on heart in situ was examined in rats. The thorax of narcotized rats (0.7 ml of 25% urethane solution per 100 g of the body weight, administered subcutaneously) was opened. The heart was placed into a special basket with a balloon, which was connected over a polyethylene cannula to a transducer "Mini Pressure Transducer--Beckmann" and dynograph Beckmann. As the left wall of the ventricle leant against the balloon, the contraction of the ventricle could be recorded. Over a tracheal tube the rats were connected to an artificial breathing apparatus.

[5] = test system: spontaneously hypertensive rats; test: effect on arterial pressure of spontaneously hypertensive rats; type: in vivo, rats (variety Okamoto Aoki F32); settings: spontaneously hypertensive rats, 50 mcg/kg intraperitoneally
Experimental: For the experiment groups of 10 spontaneously hypertensive rats (variety Okamoto Aoki F32) of both sexes, weighing from 200 to 250 g, were used. The acid addition salts of said dextrorotatory ergot alkaloids were administered intraperitoneally in doses of 50 mcg/kg of body weight and systolic blood pressure was measured on the rats' tails by means of plethysmographic method (K. Okamoto and K. Aoki, Jap. Circulat. J. 27, 1963, 282).

[6] = test system: isolated heart of a guinea pig; test: effect on isolated heart of a guinea pig, modified Langendorff's method; settings: isolated heart of guinea pig
Description: The effect of dextrorotatory ergot alkaloids according to the invention on heart in vitro was examined on isolated heart of a guinea pig by the modified Langendorff's method (Zalar et al., Poll. Chim. Farmac. 114, 1975, 146). Alkaloids were infused by an apparatus for slow infusion (B. Melsungen).

[7] = test system: alpha-adrenergic receivers of the dilatating pupil muscle; test: effect on the function of the pupil (mydriatic effect, Polewka's method); type: in vivo; settings: 5 mg/kg intravenously, mouse
Experimental: The phenomenon of mydriasis induced by ergot alkaloids results from the stimulation of alpha-adrenergic receivers of the dilatating pupil muscle (Z. Votava et al., Arch. int. Pharmacodin. 45, 1958, 114).
The mydriatic effect of dextrorotatory ergot alkaloids administered intravenously was determined with a monocular measuring magnifying glass by Polewka's method (A. R. Turner, Screening Methods in Pharmacology, 1965, p. 174 ff.).
The size of the pupil was measured at first before the administration of the substance and then 15, 30 and 60 minutes after intravenous administration of alkaloids into the mouse tail (dose 5 mg/kg of body weight).

[8] = test system: arrhythmias induced by adrenalin; test: effect on arrhythmia induced by adrenalin; type: in vivo; settings: guinea pigs, arrhythmias induced by adrenalin
Experimental: For experiments, guinea pigs of both sexes, weighing from 400 to 550 g, were used. The narcotized animals (urethane 1.6 g/kg of body weight, intraperitoneally) were at first intravenously administered adrenalin (0.02 mg/kg) and then dextrorotatory ergot alkaloids. 1 hour and 1.5 hours after the administration of dextrorotatory ergot alkaloids, adrenalin was again administered intravenously (0.02 mg/kg) and the presence as well as duration of arrhythmias was ascertained.

Compound	heart action (bradycardia) [1]	vasoconstrictory effect [2]	long-duration hypertension (effect in words) [3]	increase of the strength of heart contraction ([4]; 250 mcg/kg intravenously) [%]	increase of the strength of heart contraction ([4]; 300 mcg/kg intravenously) [%]	duration of long-duration hypertension ([3]; acid addition salts, 1.5 mg/kg of body weight)	vasoconstrictory effect [3]	effect on systolic blood pressure (in words) [5]	effect on isolated heart (in words) [6]	mydriatic effect (in words) [7]	effect on duration of arrhythmia (in words) [8]	effect on the strength of heart contraction (in words) [6]
CN1C[C@H](C(=O)N[C@]2(C)O[C@@]3(O)[C@@H]4CCCN4C(=O)[C@H](Cc4ccccc4)N3C2=O)C=C2c3cccc4[nH]cc(c34)C[C@H]21 [ergotamine]	bradycardia											
CN1C[C@H](C(=O)N[C@]2(C)O[C@@]3(O)[C@@H]4CCCN4C(=O)[C@H](Cc4ccccc4)N3C2=O)C[C@@H]2c3cccc4[nH]cc(c34)C[C@H]21 [dihydroergotamine]	bradycardia	vasoconstrictory effect										
CC(C)[C@@]1(NC(=O)[C@H]2C=C3c4cccc5[nH]cc(c45)C[C@H]3N(C)C2)O[C@@]2(O)[C@@H]3CCCN3C(=O)[C@H](Cc3ccccc3)N2C1=O [ergocristinine]			no effect	15	30							
CN1C[C@@H](C(=O)N[C@]2(C)O[C@@]3(O)[C@@H]4CCCN4C(=O)[C@H](Cc4ccccc4)N3C2=O)C=C2c3cccc4[nH]cc(c34)C[C@H]21 [ergotaminine]				15	30	more than 60 minutes	vasoconstrictory effect	strongest effect	qualitatively similar to that of ergotamine, ergosine and dihydroergotamine			
CC(C)C[C@H]1C(=O)N2CCC[C@H]2[C@]2(O)O[C@@](C)(NC(=O)[C@H]3C=C4c5cccc6[nH]cc(c56)C[C@H]4N(C)C3)C(=O)N12 [ergosinine]			The same effect	15	30		vasoconstrictory effect	strongest effect	qualitatively similar to that of ergotamine, ergosine and dihydroergotamine	strongest mydriatic effect	most efficiently shortened	quantitatively greater effect on the strength of heart contraction
